Earlier results as cited in PMC9516332 (Frontiers in Oncology, 2022).
Read-outs that look alike come from different tables or passages of the source.

Experiments:
[1] = target: T1, panel of 255 wild-type kinases (Homo sapiens, UniProt O00418); details: kinase EEF2K, 1 µmol/L single concentration, cited from earlier work
T1 sequence (O00418 1-725): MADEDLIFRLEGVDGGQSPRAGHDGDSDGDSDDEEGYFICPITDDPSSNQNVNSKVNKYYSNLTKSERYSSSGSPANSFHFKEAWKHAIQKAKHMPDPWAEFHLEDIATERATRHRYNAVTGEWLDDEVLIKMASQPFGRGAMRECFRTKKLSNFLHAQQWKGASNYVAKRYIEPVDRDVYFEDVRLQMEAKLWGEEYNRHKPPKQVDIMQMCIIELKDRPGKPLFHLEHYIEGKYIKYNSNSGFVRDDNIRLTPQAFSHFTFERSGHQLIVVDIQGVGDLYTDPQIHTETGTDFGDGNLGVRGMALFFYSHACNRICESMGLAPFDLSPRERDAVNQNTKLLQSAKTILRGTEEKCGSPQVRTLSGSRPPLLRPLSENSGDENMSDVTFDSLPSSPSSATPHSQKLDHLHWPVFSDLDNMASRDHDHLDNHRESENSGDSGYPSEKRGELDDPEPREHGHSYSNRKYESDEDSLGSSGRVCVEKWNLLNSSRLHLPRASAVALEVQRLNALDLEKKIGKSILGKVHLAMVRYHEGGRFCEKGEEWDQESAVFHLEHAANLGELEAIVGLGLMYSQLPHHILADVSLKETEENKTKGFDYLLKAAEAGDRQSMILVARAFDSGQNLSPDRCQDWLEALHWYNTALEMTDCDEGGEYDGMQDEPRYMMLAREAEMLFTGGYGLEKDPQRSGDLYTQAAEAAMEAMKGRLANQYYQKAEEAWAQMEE

[2] = target: panel of 255 wild-type kinases (Homo sapiens, UniProt Q04759); details: kinase PKCθ, 1 µmol/L single concentration, cited from earlier work
[3] = target: panel of 255 wild-type kinases (Homo sapiens, UniProt P31751); details: AKT2 kinase assay, 1 µmol/L single concentration, cited from earlier work
[4] = target: panel of 255 wild-type kinases (Homo sapiens, UniProt P22694); details: kinase PKACβ, 1 µmol/L single concentration, cited from earlier work
[5] = target: T2, panel of 255 wild-type kinases (Homo sapiens, UniProt O14757); details: CHK1 kinase assay, 1 µmol/L single concentration, cited from earlier work
T2 sequence (O14757 1-476): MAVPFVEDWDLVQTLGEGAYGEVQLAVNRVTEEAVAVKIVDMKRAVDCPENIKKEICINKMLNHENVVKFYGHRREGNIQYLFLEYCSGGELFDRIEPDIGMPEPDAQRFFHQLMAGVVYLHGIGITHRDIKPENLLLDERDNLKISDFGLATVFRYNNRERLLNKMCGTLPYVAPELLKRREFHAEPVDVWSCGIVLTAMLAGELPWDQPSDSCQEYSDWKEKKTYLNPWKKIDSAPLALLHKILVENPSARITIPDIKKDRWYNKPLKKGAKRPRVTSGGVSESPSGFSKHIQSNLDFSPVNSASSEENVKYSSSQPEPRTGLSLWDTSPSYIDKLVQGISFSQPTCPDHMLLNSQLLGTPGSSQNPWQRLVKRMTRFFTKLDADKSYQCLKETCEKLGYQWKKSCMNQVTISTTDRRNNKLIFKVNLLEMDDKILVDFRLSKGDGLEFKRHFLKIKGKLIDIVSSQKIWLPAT

[6] = target: panel of 255 wild-type kinases (Homo sapiens, UniProt P50613); details: CDK7/CycH/MAT1 kinase assay, 1 µmol/L single concentration, cited from earlier work
[7] = target: T3, panel of 255 wild-type kinases (Homo sapiens, UniProt Q12866); details: MER, 1 µmol/L single concentration, cited from earlier work
T3 sequence (Q12866 21-999): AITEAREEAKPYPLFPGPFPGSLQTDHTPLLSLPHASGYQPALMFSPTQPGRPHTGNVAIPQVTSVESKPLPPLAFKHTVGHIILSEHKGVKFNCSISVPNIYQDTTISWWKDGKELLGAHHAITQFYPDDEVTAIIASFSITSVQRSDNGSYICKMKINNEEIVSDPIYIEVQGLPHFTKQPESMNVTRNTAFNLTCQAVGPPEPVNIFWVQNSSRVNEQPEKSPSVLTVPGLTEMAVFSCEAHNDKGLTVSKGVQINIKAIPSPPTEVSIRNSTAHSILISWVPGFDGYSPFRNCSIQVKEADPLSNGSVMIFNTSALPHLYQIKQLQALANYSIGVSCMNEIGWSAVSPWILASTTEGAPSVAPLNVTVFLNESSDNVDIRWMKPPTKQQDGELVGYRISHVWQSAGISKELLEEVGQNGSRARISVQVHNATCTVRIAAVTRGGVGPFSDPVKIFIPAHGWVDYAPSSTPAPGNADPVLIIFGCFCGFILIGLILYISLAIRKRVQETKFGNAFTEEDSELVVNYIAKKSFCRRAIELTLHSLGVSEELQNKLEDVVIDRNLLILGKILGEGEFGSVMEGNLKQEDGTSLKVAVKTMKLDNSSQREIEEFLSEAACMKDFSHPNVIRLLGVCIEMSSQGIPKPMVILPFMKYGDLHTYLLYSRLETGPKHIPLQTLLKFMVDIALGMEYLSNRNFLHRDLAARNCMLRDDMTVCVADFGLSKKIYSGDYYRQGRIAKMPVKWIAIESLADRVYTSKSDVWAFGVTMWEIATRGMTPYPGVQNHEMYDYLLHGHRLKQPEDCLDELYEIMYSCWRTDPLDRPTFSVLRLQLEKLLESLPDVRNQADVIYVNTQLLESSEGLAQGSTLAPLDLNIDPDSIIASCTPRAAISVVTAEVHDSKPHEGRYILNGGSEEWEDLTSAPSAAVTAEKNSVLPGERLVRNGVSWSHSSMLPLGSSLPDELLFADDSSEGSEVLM

[8] = target: panel of 255 wild-type kinases (Homo sapiens, UniProt Q9UPE1); details: MSSK1, 1 µmol/L single concentration, cited from earlier work
[9] = ref DOI: 10.1158/1535-7163.MCT-18-0877
[10] = ref DOI: 10.1371/journal.pone.0092146

C=CC(=O)Nc1cc(Nc2nccc(-c3cn(C)c4ccccc34)n2)c(OC)cc1N(C)CCN(C)C [osimertinib]
%-inhibition at 1 µmol/L, EEF2K [1, 9]: -0.355%
%-inhibition at 1 µmol/L, PKCθ [2, 9]: 10%
%-inhibition AKT2 [3, 9]: 2.2%
%-inhibition at 1 µmol/L, PKACβ [4, 9]: -6%
%-inhibition CHK1 [5, 9]: 11%
%-inhibition CDK7/CycH/MAT1 [6, 9]: 8.57%
%-inhibition, MER [7, 9]: 10%
%-inhibition, MSSK1 [8, 9]: 0.582%

CC(=O)Nc1cccc(-n2c(=O)n(C3CC3)c(=O)c3c(Nc4ccc(I)cc4F)n(C)c(=O)c(C)c32)c1 [trametinib]
%-inhibition at 1 µmol/L, EEF2K [1, 10]: -3.43%
%-inhibition at 1 µmol/L, PKCθ [2, 10]: 0.388%
%-inhibition AKT2 [3, 10]: -8%
%-inhibition at 1 µmol/L, PKACβ [4, 10]: -5%
%-inhibition CHK1 [5, 10]: -0.719%
%-inhibition CDK7/CycH/MAT1 [6, 10]: -6%
%-inhibition, MER [7, 10]: -6.62%
%-inhibition, MSSK1 [8, 10]: -5%

CCCS(=O)(=O)Nc1ccc(F)c(C(=O)c2c[nH]c3ncc(-c4ccc(Cl)cc4)cc23)c1F [vemurafenib]
%-inhibition at 1 µmol/L, EEF2K [1, 10]: -5%
%-inhibition at 1 µmol/L, PKCθ [2, 10]: -3%
%-inhibition AKT2 [3, 10]: -3%
%-inhibition at 1 µmol/L, PKACβ [4, 10]: 2.66%
%-inhibition CHK1 [5, 10]: 4%
%-inhibition CDK7/CycH/MAT1 [6, 10]: 0.137%
%-inhibition, MER [7, 10]: 6%
%-inhibition, MSSK1 [8, 10]: -6.65%
